ChEMBL document CHEMBL3621144, “Small-Molecule Allosteric Modulators of the Protein Kinase PDK1 from Structure-Based Docking” (J Med Chem, 2015)
Calls of active or inactive are those of the source. The calls are words filed in the database; no cut-off is given here.

Experiments:
[1] = target: T1, 3-phosphoinositide-dependent protein kinase 1 (Homo sapiens, UniProt O15530); assay: Displacement of PIFtide from human PDK1 PIF pocket after 1 hr by fluorescence polarization assay
T1 sequence (O15530 whole entry): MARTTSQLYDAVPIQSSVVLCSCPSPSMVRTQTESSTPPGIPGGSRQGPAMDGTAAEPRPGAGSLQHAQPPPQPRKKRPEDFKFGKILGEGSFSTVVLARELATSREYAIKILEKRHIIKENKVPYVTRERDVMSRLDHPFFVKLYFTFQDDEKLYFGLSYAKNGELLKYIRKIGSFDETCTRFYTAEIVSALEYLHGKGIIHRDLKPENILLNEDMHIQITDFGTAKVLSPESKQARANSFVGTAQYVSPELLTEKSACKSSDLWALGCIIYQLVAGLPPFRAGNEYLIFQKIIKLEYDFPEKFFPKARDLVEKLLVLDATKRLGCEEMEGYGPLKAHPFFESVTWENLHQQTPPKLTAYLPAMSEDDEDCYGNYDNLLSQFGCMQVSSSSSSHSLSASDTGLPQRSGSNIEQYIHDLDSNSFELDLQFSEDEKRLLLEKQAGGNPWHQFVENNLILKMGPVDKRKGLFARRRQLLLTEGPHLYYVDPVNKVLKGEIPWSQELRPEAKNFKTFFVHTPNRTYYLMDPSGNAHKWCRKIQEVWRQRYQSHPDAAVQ

[2] = Induction of colloidal aggregates formation in Tris/NaCl/MgCl2/CHAPS/beta-mercaptoethanol buffer at 200 uM by dynamic light scattering method; type: physicochemical
[3] = Induction of colloidal aggregates formation in Tris/NaCl/Pluronic F-68 buffer at 300 uM by dynamic light scattering method; type: physicochemical
[4] = target: T1, 3-phosphoinositide-dependent protein kinase 1; assay: Activation of human PDK1 catalytic activity using T308tide as substrate after 1 hr by phosphor imager analysis in presence of [gamma-32P]-ATP relative to control
[5] = target: Cruzipain (Trypanosoma cruzi) (UniProt P25779); assay: Inhibition of Trypanosoma cruzi Cruzain using Z-FR-AMC as substrate preincubated for 5 mins followed by substrate addition measured for 5 mins by spectrofluorimetric analysis
[6] = Induction of colloidal aggregates formation in Tris/NaCl/Pluronic F-68 buffer at 100 uM by dynamic light scattering method; type: physicochemical

Cruzipain (Trypanosoma cruzi), sequence (P25779 123-467 limits assumed): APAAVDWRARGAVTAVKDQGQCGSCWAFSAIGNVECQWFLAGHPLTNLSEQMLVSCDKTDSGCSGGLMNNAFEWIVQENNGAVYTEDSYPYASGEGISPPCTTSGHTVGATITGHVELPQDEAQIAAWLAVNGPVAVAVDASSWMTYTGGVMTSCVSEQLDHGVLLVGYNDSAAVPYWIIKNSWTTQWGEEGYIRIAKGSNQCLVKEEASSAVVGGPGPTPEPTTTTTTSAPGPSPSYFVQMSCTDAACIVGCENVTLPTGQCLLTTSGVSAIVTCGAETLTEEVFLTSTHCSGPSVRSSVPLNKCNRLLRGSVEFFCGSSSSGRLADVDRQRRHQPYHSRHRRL

| Compound | Kd [1] | also measured |
| --- | --- | --- |
| C[C@H](CN[C@H](c1ccc(F)cc1)P(=O)(O)O)c1ccccc1 | > 200 µM | – |
| O=C(O)Cn1c(SCc2cccc3ccccc23)nc2ccccc21 | 120 µM | – |
| O=P(O)(O)[C@H](NC[C@@H]1CCCc2ccccc21)c1ccc(F)cc1 | 39.4 µM | Activity [2]: Not Active; Activity [3]: Not Active; EC50 [4]: 50 µM; inhibition [5]: inactive |
| O=C(O)CSc1nc2ccccc2n1CCOc1ccccc1 | 120 µM | – |
| O=C(O)C/C(=C/c1cccc(C(F)(F)F)c1)c1nc2ccccc2o1 | > 200 µM | – |
| C[C@@H](CN[C@H](c1ccccc1)P(=O)(O)O)c1ccccc1 | 150 µM | – |
| O=C(O)Cn1c(SCc2ccccc2)nc2ccccc21 | > 200 µM | – |
| Cc1ccc(OCCSc2nc3ccccc3n2CC(=O)O)c(C)c1 | 39.1 µM | Activity [2]: Not Active; Activity [3]: Not Active; Activity [6]: Not Active; EC50 [4]: 40 µM; inhibition [5]: inactive |
| COc1ccccc1OCCSc1nc2ccccc2n1CC(=O)O | > 200 µM | – |
| O=C(O)Cn1c(SCCOc2ccccc2F)nc2ccccc21 | > 200 µM | – |
| Cc1cccc(OCCn2c(SCC(=O)O)nc3ccccc32)c1 | 75 µM | – |
| Cc1ccccc1OCCSc1nc2ccccc2n1CC(=O)O | 50 µM | – |
| Cc1ccccc1OCCSc1nc2ccccc2n1CCC(=O)O | 74 µM | – |
| C[C@@H](CN[C@H](c1ccc(F)c(F)c1)P(=O)(O)O)c1ccccc1 | 83 µM | – |
| O=P(O)(O)[C@H](NCCc1ccc(F)cc1)c1ccc(F)cc1 | > 200 µM | – |
| Cc1cccc(OCCSc2nc3ccccc3n2CC(=O)O)c1C | 110 µM | – |
| O=C(O)Cn1c(SCCOc2ccccc2)nc2ccccc21 | > 200 µM | – |
